Measured values taken from patent publication US20250034216A1, “STEREOSELECTIVE COVALENT LIGANDS FOR ONCOGENIC AND IMMUNOLOGICAL PROTEINS” (The Scripps Research Institute, priority 2021, published 2025).

What was measured:
Assay in all cases: IA-DTB cysteine engagement
Type in all cases: binding
Details in all cases: 22Rv1 cells, 20 μM probe, 1 h, relative to DMSO
ACTL8_C197 = molecular target: T1, ACTL8_C197 (Homo sapiens, UniProt Q9H568)
T1 construct: endogenous in cells; host or cells: 22Rv1
T1 sequence (Q9H568 1-366): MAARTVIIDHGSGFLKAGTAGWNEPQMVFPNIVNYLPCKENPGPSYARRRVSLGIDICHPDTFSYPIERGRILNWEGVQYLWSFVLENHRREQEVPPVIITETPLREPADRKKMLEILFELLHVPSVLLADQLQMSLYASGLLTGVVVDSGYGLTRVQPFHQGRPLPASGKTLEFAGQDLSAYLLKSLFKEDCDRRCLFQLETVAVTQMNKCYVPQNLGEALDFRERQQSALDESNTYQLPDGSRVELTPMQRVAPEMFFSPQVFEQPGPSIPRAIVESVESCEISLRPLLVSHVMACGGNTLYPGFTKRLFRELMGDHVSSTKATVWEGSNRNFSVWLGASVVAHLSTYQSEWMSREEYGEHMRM
Summary of the method: (§1)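 Cells were treated in situ with electrophilic probes, then lysed, and the lysates (2 mg/mL protein) were labeled with IA-DTB for 1 h at ambient temperature. After reduction, alkylation and trypsin digestion, labeled peptides were streptavidin-enriched, TMT-labeled and fractionated. Engagement ratios are probe vs DMSO reporter intensities, averaged across replicates.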

RETSAT_C547 = molecular target: T2, RETSAT_C547 (Homo sapiens, UniProt Q6NUM9)
T2 construct: endogenous in cells; host or cells: 22Rv1
T2 sequence (Q6NUM9 19-610): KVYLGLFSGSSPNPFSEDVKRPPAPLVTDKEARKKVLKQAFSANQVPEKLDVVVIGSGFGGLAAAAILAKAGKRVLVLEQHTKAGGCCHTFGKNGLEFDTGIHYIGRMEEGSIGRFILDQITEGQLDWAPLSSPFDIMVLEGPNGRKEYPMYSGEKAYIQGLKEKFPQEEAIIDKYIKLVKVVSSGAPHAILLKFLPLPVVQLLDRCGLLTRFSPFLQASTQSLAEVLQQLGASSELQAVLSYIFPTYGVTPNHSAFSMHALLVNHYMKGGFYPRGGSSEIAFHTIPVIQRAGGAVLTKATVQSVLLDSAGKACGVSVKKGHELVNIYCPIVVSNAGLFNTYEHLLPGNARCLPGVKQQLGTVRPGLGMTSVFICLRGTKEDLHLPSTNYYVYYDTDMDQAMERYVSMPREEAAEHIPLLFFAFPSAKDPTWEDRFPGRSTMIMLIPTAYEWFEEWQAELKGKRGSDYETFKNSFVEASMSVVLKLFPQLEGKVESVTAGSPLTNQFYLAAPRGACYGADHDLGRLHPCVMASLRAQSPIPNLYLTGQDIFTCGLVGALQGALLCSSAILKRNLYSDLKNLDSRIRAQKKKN
Summary of the method: as §1

GSTO1_C32 = molecular target: T3, GSTO1_C32 (Homo sapiens, UniProt P78417)
T3 construct: endogenous in cells; host or cells: 22Rv1
T3 sequence (P78417 1-241): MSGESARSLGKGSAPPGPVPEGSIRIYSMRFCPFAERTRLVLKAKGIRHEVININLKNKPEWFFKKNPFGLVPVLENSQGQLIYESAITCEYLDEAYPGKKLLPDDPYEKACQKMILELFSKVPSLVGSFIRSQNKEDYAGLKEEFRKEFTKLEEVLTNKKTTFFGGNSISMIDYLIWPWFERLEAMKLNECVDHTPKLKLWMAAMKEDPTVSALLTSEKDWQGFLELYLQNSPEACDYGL
Summary of the method: as §1

DCTN4_C258 = molecular target: T4, DCTN4_C258 (Homo sapiens, UniProt Q9UJW0)
T4 construct: endogenous in cells; host or cells: 22Rv1
T4 sequence (Q9UJW0 whole entry): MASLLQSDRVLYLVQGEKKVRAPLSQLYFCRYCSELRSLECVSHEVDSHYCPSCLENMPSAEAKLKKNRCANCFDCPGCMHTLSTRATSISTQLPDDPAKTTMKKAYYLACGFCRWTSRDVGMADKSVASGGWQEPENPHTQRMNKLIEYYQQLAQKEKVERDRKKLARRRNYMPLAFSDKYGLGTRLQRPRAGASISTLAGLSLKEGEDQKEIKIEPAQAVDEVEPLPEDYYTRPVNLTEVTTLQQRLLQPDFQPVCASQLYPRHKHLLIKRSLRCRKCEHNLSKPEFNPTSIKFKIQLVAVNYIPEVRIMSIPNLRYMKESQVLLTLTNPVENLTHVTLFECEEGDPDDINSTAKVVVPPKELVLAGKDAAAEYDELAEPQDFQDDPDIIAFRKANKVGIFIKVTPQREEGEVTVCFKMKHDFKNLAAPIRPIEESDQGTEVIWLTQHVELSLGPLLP
Summary of the method: as §1

% engagement ACTL8_C197 (ACTL8_C197)	% engagement RETSAT_C547 (RETSAT_C547)	% engagement GSTO1_C32 (GSTO1_C32)	% engagement DCTN4_C258 (DCTN4_C258)	Structure (SMILES)
14%	80%	22%	27.5%	C=CC(=O)N1C[C@@H](c2ccc(Br)cc2)[C@H]1C(=O)Nc1cccc2cccnc12 [MY-1A, (2S,3R)-1-acryloyl-3-(4-bromophenyl)-N-(quinolin-8-yl)azetidine-2-carboxamide]
66.25%	66.75%	82%	68%	C=CC(=O)N1C[C@H](c2ccc(Br)cc2)[C@@H]1C(=O)Nc1cccc2cccnc12 [MY-1B, (2R,3S)-1-acryloyl-3-(4-bromophenyl)-N-(quinolin-8-yl)azetidine-2-carboxamide]
36.75%	71.25%	80.5%	31.5%	C=CC(=O)N1C[C@H](c2ccc(Br)cc2)[C@H]1C(=O)Nc1cccc2cccnc12 [MY-3B, (2S,3S)-1-acryloyl-3-(4-bromophenyl)-N-(quinolin-8-yl)azetidine-2-carboxamide]
3.25%	53.5%	79%	15.5%	C=CC(=O)N1C[C@H](c2ccc(Br)cc2)[C@H]1C(=O)Nc1cccc2cccnc12 [MY-3A, (2S,3S)-1-acryloyl-3-(4-bromophenyl)-N-(quinolin-8-yl)azetidine-2-carboxamide]
